Earlier results in patent US5565606A, “Synthesis of peptide aminoalkylamides and peptide hydrazides by the solid-phase method” (Hoechst Aktiengesellschaft, priority 1986, dated 1996).
Like-named read-outs stand apart in the source and are kept apart here.

Legend:
[1] = test system: amnesia induced by electric shock or scopolamine; details: s.c. administration, mice; from EP-A 179 332
urge to groom and move = details: rats, from EP-A 179 332
[2] = test system: choline content in the striatum; details: rats, s.c. administration of 10 μg; from EP-A 179 332

Met(O)-Glu-His-Phe-D-Lys-Phe-NH-(CH2)8 -NH2
minimum effective dose, weakening of amnesia [1]: 0.03 µg/kg

benzyloxycarbonyl-D-Lys-Phe-NH-(CH2)8 -NH2.2HCl
urge to groom and move (urge to groom and move; i.c.v. administration of 1 μg): the same action

benzyloxycarbonyl-Lys-Phe-OMe
urge to groom and move (urge to groom and move; i.c.v. administration of 10 μg): cause the urge to groom and move | choline content in the striatum [2]: increased
